Experimental data published in patent US7612065B2, “Inhibitors of c-JUN N-terminal kinases (JNK)” (priority 2007, dated 2009).

Target: T1, JNK3 (Homo sapiens, UniProt P53779)
T1 construct: One such construct encodes amino acid residues Ser40-Glu402 of JNK3α1 and is preceded by Met and Gly residues; Met-Gly (initiation methionine plus glycine added for the NcoI site); made in house; host or cells: E. coli BL21 (DE3)
Assay: JNK inhibition assay: spectrophotometric coupled-enzyme assay with activated JNK3
Type: biochemical
Conditions: activated JNK3 10 nM, 10 μM ATP, 200 μM EGF receptor peptide, 30° C., competitive inhibition model
Text: A BLAST search of the EST database using the published JNK3α1 cDNA as a query identified an EST clone (#632588) that contained the entire coding sequence for human JNK3α1. Polymerase chain reactions (PCR) using pfu polymerase (Strategene) were used to introduce restriction sites into the cDNA for cloning into the pET-15B expression vector at the NcoI and BamHI sites. The protein was expressed in E. coli. […] This truncation corresponds to Ser 2 of JNK1 and JNK2 proteins, and is preceded by a methionine (initiation) and a glycine residue. The glycine residue was added in order to introduce an NcoI site for cloning into the expression vector. In addition, systematic C-terminal truncations were performed by PCR to identify a construct that give rise to diffraction-quality crystals.
5 mg of JNK3 was diluted to 0.5 mg/ml in 50 mM HEPES buffer, pH 7.5, containing 100 mM NaCl, 5 mM DTT, 20 mM MgCl2 and 1 mM ATP. GST-MKK7(DD) was added at a molar ratio of 1:2.5 GST-MKK7:JNK3. After incubation for 30 minutes at 25° C., the reaction mixture was concentrated 5-fold by ultrafiltration in a Centriprep-30 (Amicon, Beverly, Mass.), diluted to 10 ml and an additional 1 mM ATP added. This procedure was repeated three times to remove ADP and replenish ATP. The final addition of ATP was 5 mM and the mixture incubated overnight at 4° C.
The activated JNK3/GST-MKK7(DD) reaction mixture was exchanged into 50 mM HEPES buffer, pH 7.5, containing 5 mM DTT and 5% glycerol (w/v) by dialysis or ultrafiltration. The reaction mixture was adjusted to 1.1 M potassium phosphate, pH 7.5, and purified by hydrophobic interaction chromatography (at 25° C.) using a Rainin Hydropore column. […] Activated JNK3 (i.e. doubly phosphorylated JNK3) was stored at −70° C. at 0.25-1 mg/ml.
Compounds were assayed for the inhibition of JNK3 by a spectrophotometric coupled-enzyme assay. In this assay, a fixed concentration of activated JNK3 (10 nM) was incubated with various concentrations of a potential inhibitor dissolved in DMSO for 10 minutes at 30° C. in a buffer containing 0.1 M HEPES buffer, pH 7.5, containing 10 mM MgCl2, 2.5 mM phosphoenolpyruvate, 200 μM NADH, 150 μg/mL pyruvate kinase, 50 μg/mL lactate dehydrogenase, and 200 μM EGF receptor peptide. […] The reaction was initiated by the addition of 10 μM ATP and the assay plate is inserted into the spectrophotometer's assay plate compartment that was maintained at 30° C. The decrease of absorbance at 340 nm was monitored as a function of time. The rate data as a function of inhibitor concentration was fitted to competitive inhibition kinetic model to determine the Ki.

T1 sequence (P53779 40-402): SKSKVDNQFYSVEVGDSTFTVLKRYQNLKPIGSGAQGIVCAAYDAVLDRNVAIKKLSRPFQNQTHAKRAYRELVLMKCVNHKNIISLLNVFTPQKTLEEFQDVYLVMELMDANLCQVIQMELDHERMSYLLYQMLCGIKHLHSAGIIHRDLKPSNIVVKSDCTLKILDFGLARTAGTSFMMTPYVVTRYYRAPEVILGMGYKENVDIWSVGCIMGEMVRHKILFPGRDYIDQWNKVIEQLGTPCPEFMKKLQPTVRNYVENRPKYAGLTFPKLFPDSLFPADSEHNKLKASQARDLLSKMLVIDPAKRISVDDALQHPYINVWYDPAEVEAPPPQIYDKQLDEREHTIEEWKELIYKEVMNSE

Row | Structure (SMILES) | Ki
1 | COc1cc(CN2C(=O)/C(=N\O)c3cc(OC(F)(F)F)ccc32)cc(OC)c1 [Compound 107] | ≥ 1000 nM
2 | O=C1/C(=N\O)c2cc(OC(F)(F)F)ccc2N1Cc1cc(F)cc2c1OCOC2 [Compound 108] | ≥ 1000 nM
3 | COc1ccc(-c2nc(CN3C(=O)/C(=N\O)c4cc(F)ccc43)no2)cc1 [Compound 109] | ≥ 1000 nM
4 | Cc1cc(C)c2c(c1)/C(=N/O)C(=O)N2Cc1ccccn1 [Compound 110] | ≥ 1000 nM
5 | Cc1cc(Cl)cc2c1N(Cc1nc3ccccc3[nH]1)C(=O)/C2=N\O [Compound 111] | ≥ 1000 nM
6 | O=C(Nc1ccc2c(c1)/C(=N/O)C(=O)N2Cc1ccccc1)c1ccccc1 [Compound 115] | ≥ 1000 nM
7 | COc1cccc(C(=O)Nc2ccc3c(c2)/C(=N/O)C(=O)N3Cc2ccccc2)c1 [Compound 120] | ≥ 1000 nM
8 | COc1cc(CN2C(=O)/C(=N\O)c3cc(NC(=O)c4cccc(OC)c4)ccc32)cc(OC)c1 [Compound 121] | ≥ 1000 nM
9 | COc1cccc(C(=O)Nc2ccc3c(c2)/C(=N/O)C(=O)N3Cc2cc(F)cc3c2OCOC3)c1 [Compound 122] | ≥ 1000 nM
10 | COc1cc(CN2C(=O)/C(=N\O)c3cc(NC(=O)CCc4ccccc4)ccc32)cc(OC)c1 [Compound 131] | ≥ 1000 nM
11 | O=C(Nc1ccc2c(c1)/C(=N/O)C(=O)N2Cc1ccccc1)c1cccc2ccccc12 [Compound 136] | ≥ 1000 nM
12 | O=C1/C(=N\O)c2cc(-c3c(F)cccc3F)ccc2N1Cc1ccccc1 [Compound 157] | ≥ 1000 nM
13 | O=C(CN1C(=O)/C(=N\O)c2cc(Br)ccc21)OCc1ccccc1 [Compound 158] | ≥ 1000 nM
14 | CC(C)CN1C(=O)/C(=N\O)c2cc(Br)ccc21 [Compound 159] | ≥ 1000 nM
15 | C=CCCCN1C(=O)/C(=N\O)c2cc(Br)ccc21 [Compound 160] | ≥ 1000 nM
16 | O=C1c2ccccc2C(=O)N1CCCN1C(=O)/C(=N\O)c2ccc(-c3ccccc3)cc21 [Compound 161] | ≥ 1000 nM

Row | Structure (SMILES) | Ki
17 | O=C1/C(=N\O)c2ccc(-c3ccccc3)cc2N1Cc1ccccc1-c1ccccc1 [Compound 162] | ≥ 1000 nM
18 | O=C1/C(=N\O)c2ccc(-c3ccccc3)cc2N1CC1OCCO1 [Compound 163] | ≥ 1000 nM
19 | COc1cccc(-c2ccc3c(c2)N(Cc2cc(=O)oc4cc(OC)ccc24)C(=O)/C3=N\O)c1 [Compound 175] | ≥ 1000 nM
20 | COC(=O)c1cccc(CN2C(=O)/C(=N/O)c3ccc(-c4cccc(OC)c4)cc32)c1 [Compound 176] | ≥ 1000 nM
21 | O=C1/C(=N/O)c2ccc(-c3ccsc3)cc2N1CCOc1ccccc1 [Compound 183] | ≥ 1000 nM
22 | COc1ccc2c(CN3C(=O)/C(=N/O)c4ccc(-c5ccsc5)cc43)cc(=O)oc2c1 [Compound 184] | ≥ 1000 nM
23 | COC(=O)c1cccc(CN2C(=O)/C(=N/O)c3ccc(-c4ccsc4)cc32)c1 [Compound 185] | ≥ 1000 nM
24 | COC(=O)CCCN1C(=O)/C(=N/O)c2ccc(-c3ccsc3)cc21 [Compound 186] | ≥ 1000 nM
25 | O=C1c2ccccc2C(=O)N1CCCN1C(=O)/C(=N/O)c2ccc(CBr)cc21 [Compound 187] | ≥ 1000 nM
26 | COc1ccc2c(CN3C(=O)/C(=N/O)c4ccc(CBr)cc43)cc(=O)oc2c1 [Compound 188] | ≥ 1000 nM
27 | COC(=O)CCCN1C(=O)/C(=N/O)c2ccc(CBr)cc21 [Compound 190] | ≥ 1000 nM
28 | COc1cc(CN2C(=O)/C(=N\O)c3ccc([N+](=O)[O-])cc32)cc(OC)c1 [Compound 198] | ≥ 1000 nM
29 | COc1cc(CN2C(=O)/C(=N\O)c3c(-c4ccccc4)cccc32)cc(OC)c1 [Compound 200] | ≥ 1000 nM
30 | O=C1/C(=N\O)c2c(-c3ccccc3)cccc2N1Cc1cc(F)cc2c1OCOC2 [Compound 202] | ≥ 1000 nM
31 | O=C1/C(=N\O)c2c(-c3cccc(F)c3)cccc2N1Cc1cc(F)cc2c1OCOC2 [Compound 203] | ≥ 1000 nM
32 | O=C1/C(=N\O)c2c(-c3ccc(F)cc3)cccc2N1Cc1cc(F)cc2c1OCOC2 [Compound 204] | ≥ 1000 nM

Next, values leading:

Row | Ki | Structure (SMILES)
33 | ≥ 1000 nM | Cc1cc(C)c2c(c1)/C(=N/O)C(=O)N2Cc1cccc([N+](=O)[O-])c1 [Compound 88]
34 | ≥ 1000 nM | Cc1cc(C)c2c(c1)/C(=N/O)C(=O)N2Cc1ccccc1C#N [Compound 89]
35 | ≥ 1000 nM | COc1ccccc1-c1nc(CN2C(=O)/C(=N\O)c3cc(C)cc(C)c32)no1 [Compound 90]
36 | ≥ 1000 nM | COc1ccc(-c2nc(CN3C(=O)/C(=N\O)c4cc(C)cc(C)c43)no2)cc1 [Compound 91]
37 | ≥ 1000 nM | Cc1cc(C)c2c(c1)/C(=N/O)C(=O)N2Cc1cccc(Oc2ccccc2)c1 [Compound 92]
38 | ≥ 1000 nM | Cc1cc(C)c2c(c1)/C(=N/O)C(=O)N2Cc1ccc(S(C)(=O)=O)cc1 [Compound 93]
39 | ≥ 1000 nM | COc1cc(CN2C(=O)/C(=N\O)c3cc(C)cc(C)c32)cc(OC)c1 [Compound 94]
40 | ≥ 1000 nM | Cc1cc(C)c2c(c1)/C(=N/O)C(=O)N2Cc1cc(F)cc2c1OCOC2 [Compound 95]
41 | ≥ 1000 nM | Cc1cc(C)c2c(c1)/C(=N/O)C(=O)N2Cc1csc(-c2ccc(Cl)cc2)n1 [Compound 96]
42 | ≥ 1000 nM | COc1ccc(CN2C(=O)/C(=N\O)c3cc(Cl)cc(C)c32)cc1 [Compound 97]
43 | < 1000 nM | Cc1cc(Cl)cc2c1N(Cc1cccc([N+](=O)[O-])c1)C(=O)/C2=N\O [Compound 98]
44 | ≥ 1000 nM | Cc1cc(Cl)cc2c1N(Cc1ccccc1C#N)C(=O)/C2=N\O [Compound 99]
45 | ≥ 1000 nM | Cc1cc(Cl)cc2c1N(Cc1cccc(Oc3ccccc3)c1)C(=O)/C2=N\O [Compound 100]
46 | ≥ 1000 nM | Cc1cc(Cl)cc2c1N(Cc1ccc(S(C)(=O)=O)cc1)C(=O)/C2=N\O [Compound 101]
47 | < 1000 nM | COc1cc(CN2C(=O)/C(=N\O)c3cc(Cl)cc(C)c32)cc(OC)c1 [Compound 102]
48 | < 1000 nM | Cc1cc(Cl)cc2c1N(Cc1cc(F)cc3c1OCOC3)C(=O)/C2=N\O [Compound 103]
49 | ≥ 1000 nM | Cc1cc(Cl)cc2c1N(Cc1ccccn1)C(=O)/C2=N\O [Compound 104]
50 | ≥ 1000 nM | COc1ccc(CN2C(=O)/C(=N\O)c3cc(OC(F)(F)F)ccc32)cc1 [Compound 105]

Row | Ki | Structure (SMILES)
51 | ≥ 1000 nM | O=C1/C(=N\O)c2cc(OC(F)(F)F)ccc2N1Cc1cccc([N+](=O)[O-])c1 [Compound 106]
52 | < 1000 nM | Cc1ccc2c(c1)N(Cc1cc(F)cc3c1OCOC3)C(=O)/C2=N\O [Compound 149]
53 | < 1000 nM | COc1cc(CN2C(=O)/C(=N\O)c3ccc(C)cc32)cc(OC)c1 [Compound 150]
54 | < 1000 nM | COc1cc(CN2C(=O)/C(=N\O)c3ccc(Br)cc32)cc(OC)c1 [Compound 151]
55 | < 1000 nM | O=C1/C(=N\O)c2ccc(Br)cc2N1Cc1cc(F)cc2c1OCOC2 [Compound 152]
56 | < 1000 nM | O=C1/C(=N\O)c2ccc(-c3ccccc3)cc2N1Cc1cc(F)cc2c1OCOC2 [Compound 153]
57 | < 1000 nM | O=C(O)c1ccc(-c2ccc3c(c2)N(Cc2cc(F)cc4c2OCOC4)C(=O)/C3=N\O)cc1 [Compound 154]
58 | < 1000 nM | COc1cc(CN2C(=O)/C(=N\O)c3ccc(OC)cc32)cc(OC)c1 [Compound 155]
59 | < 1000 nM | COc1ccc2c(c1)N(Cc1cc(F)cc3c1OCOC3)C(=O)/C2=N\O [Compound 156]
60 | < 1000 nM | COc1cc(CN2C(=O)/C(=N\O)c3ccc(C(F)(F)F)cc32)cc(OC)c1 [Compound 164]
61 | < 1000 nM | O=C1/C(=N\O)c2ccc(C(F)(F)F)cc2N1Cc1cc(F)cc2c1OCOC2 [Compound 165]
62 | < 1000 nM | COc1cc(CN2C(=O)/C(=N\O)c3c(C)cc(C)cc32)cc(OC)c1 [Compound 166]
63 | < 1000 nM | Cc1cc(C)c2c(c1)N(Cc1cc(F)cc3c1OCOC3)C(=O)/C2=N\O [Compound 167]
64 | < 1000 nM | COC(=O)c1cccc(CN2C(=O)/C(=N/O)c3ccc(CBr)cc32)c1 [Compound 189]
65 | < 1000 nM | O=C1/C(=N\O)c2c(Cl)cc(Cl)cc2N1Cc1cc(F)cc2c1OCOC2 [Compound 196]
66 | < 1000 nM | COc1cc(CN2C(=O)/C(=N\O)c3c(Br)cccc32)cc(OC)c1 [Compound 199]
67 | < 1000 nM | O=C1/C(=N\O)c2c(Br)cccc2N1Cc1cc(F)cc2c1OCOC2 [Compound 201]
